Assay results taken from the NIST ThermoML archive (doi:10.1016/j.jct.2008.09.008).

Test: wn = mass fraction of the nth substance listed
Details: 101 kPa, Liquid; for viscosity: Capillary tube (Ostwald / Ubbelohde) method; for speed of sound: Linear variable-path acoustic interferometer; for mass density: Pycnometric method

OCCCCO [1,4-butanediol] + O
Details	mass density, w1 = 0.2 [kg/m3]	mass density, w1 = 0.4 [kg/m3]	speed of sound, w1 = 0.2 [m/s]	speed of sound, w1 = 0.4 [m/s]	viscosity, w1 = 0.2 [mPa·s]	viscosity, w1 = 0.4 [mPa·s]
298.15 K	1004.93	1013.41	1605.3	1684.2	3.421	6.454
303.15 K	1002.93	1010.75	1606.6	1677.4	2.966	5.738
308.15 K	1000.79	1008.04	1607.8	1670.7	2.542	4.993
313.15 K	998.53	1005.28	1608.5	1664	2.142	4.221
318.15 K	996.15	1002.46	1609.3	1657.2	1.774	3.421
